Tests used:
[1] = biological target: PDE1 (Ca2+/calmodulin-dependent) from bovine brain; assay: Inhibition of the PDE isoenzymes: PDE1; assay type: biochemical; conditions: Ca2+ (1 mM) and calmodulin (100 nM), cGMP as substrate
Description: (§1) The PDE activity was determined according to Thompson et al. (1) with a few modifications (2). The test samples contained 40 mM tris HCl (pH 7.4), 5 mM MgCl2, 0.5 μM cAMP or cGMP, [^3H] cAMP or [^3H]cGMP (about 50,000 cpm/sample), the PDE isoenzyme-specific additives described in greater detail below, the given concentrations of inhibitor and an aliquot of the enzyme solution in a total sample volume of […]. […] After preincubation at 37° C. for 5 minutes, the reaction was started by addition of the substrate (cAMP or cGMP). The samples were incubated at 37° C. for a further 15 min. The reaction was stopped by addition of 50 μl of 0.2N HCl. After cooling on ice for 10 minutes and addition of 25 μg of 5′-nucleotidase (snake venom from Crotalus atrox), incubation was carried out again for 10 min. at 37° C. and the samples were then applied to QAE Sephadex A-25 columns. The columns were eluted with 2 ml of 30 mM ammonium formate (pH 6.0). The radioactivity of the eluate was measured and corrected by the corresponding blank values. The proportion of hydrolyzed nucleotide in no case exceeded 20% of the original substrate concentration.
PDE1 (Ca^2+/calmodulin-dependent) from bovine brain: the inhibition of this isoenzyme was investigated in the presence of Ca^2+ (1 mM) and calmodulin (100 nM) using cGMP as a substrate (3).
(§2) The IC50 values were determined from the concentration inhibition curves by nonlinear regression using the program GraphPad InPlot™ (GraphPad Software Inc., Philadelphia, USA).

[2] = biological target: T1, PDE2 (cGMP-stimulated) from rats' hearts (Rattus norvegicus, UniProt Q01062); assay: Inhibition of the PDE isoenzymes: PDE2; assay type: biochemical; conditions: in presence of cGMP (5 μM), cAMP as substrate, read-out: PDE2 inhibitory concentration as -log IC50 (converted)
T1 construct: PDE2 (cGMP-stimulated) from rats' hearts was purified chromatographically; from tissue; host or cells: rat heart
T1 sequence (Q01062 1-928): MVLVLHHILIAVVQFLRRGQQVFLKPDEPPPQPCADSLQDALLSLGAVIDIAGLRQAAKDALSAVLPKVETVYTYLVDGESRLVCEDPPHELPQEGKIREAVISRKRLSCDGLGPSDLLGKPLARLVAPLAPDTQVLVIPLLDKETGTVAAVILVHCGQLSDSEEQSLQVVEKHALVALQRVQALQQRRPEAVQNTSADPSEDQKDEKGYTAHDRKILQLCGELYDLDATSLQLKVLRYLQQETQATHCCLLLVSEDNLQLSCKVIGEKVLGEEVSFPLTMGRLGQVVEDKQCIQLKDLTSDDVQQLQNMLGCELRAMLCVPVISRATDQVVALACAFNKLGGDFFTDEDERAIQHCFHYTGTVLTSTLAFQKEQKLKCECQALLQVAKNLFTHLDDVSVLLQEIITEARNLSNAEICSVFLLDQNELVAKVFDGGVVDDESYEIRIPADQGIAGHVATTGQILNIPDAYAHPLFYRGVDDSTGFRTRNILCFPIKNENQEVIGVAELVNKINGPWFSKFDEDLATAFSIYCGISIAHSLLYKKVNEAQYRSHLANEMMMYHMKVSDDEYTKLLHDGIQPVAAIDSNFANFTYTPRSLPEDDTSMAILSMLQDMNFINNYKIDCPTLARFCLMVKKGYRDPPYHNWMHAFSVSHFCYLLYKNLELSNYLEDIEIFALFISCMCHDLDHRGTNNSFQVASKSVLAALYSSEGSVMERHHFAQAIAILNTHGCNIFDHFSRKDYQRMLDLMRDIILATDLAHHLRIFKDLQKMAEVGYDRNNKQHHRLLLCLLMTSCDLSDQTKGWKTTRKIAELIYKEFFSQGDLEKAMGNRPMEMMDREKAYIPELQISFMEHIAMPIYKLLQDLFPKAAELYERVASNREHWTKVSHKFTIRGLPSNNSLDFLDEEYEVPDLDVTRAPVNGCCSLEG
Description: as §1
PDE2 (cGMP-stimulated) from rats' hearts was purified chromatographically [Schudt et al. (4)] and investigated in the presence of cGMP (5 μM) using cAMP as a substrate.
as §2

[3] = biological target: T2, PDE3 (cGMP-inhibited), homogenates of human blood platelets (Homo sapiens, UniProt Q14432); assay: Inhibition of the PDE isoenzymes: PDE3; assay type: biochemical; conditions: cAMP as substrate, read-out: PDE3 inhibitory concentration as -log IC50 (converted)
T2 construct: were investigated in homogenates of human blood platelets; from tissue; host or cells: human blood platelets (homogenate)
Description: as §1
(§3) PDE3 (cGMP-inhibited) and PDE5 (cGMP-specific) were investigated in homogenates of human blood platelets [Schudt et al. (4)] using cAMP or cGMP as a substrate.
as §2

[4] = biological target: PDE4 (cAMP-specific), cytosol of human polymorphonuclear leucocytes (PMNL); assay: Inhibition of the PDE isoenzymes: PDE4; assay type: biochemical; conditions: cAMP as substrate, motapizone (1 μM) present
Description: as §1
PDE4 (cAMP-specific) was investigated in the cytosol of human polymorphonuclear leucocytes (PMNL) [isolated from leucocyte concentrates, see Schudt et al. (5)] using cAMP as a substrate. The PDE3 inhibitor motapizone (1 μM) was used in order to suppress the PDE3 activity emanating from contaminating blood platelets.
as §2

[5] = biological target: T3, PDE5 (cGMP-specific), homogenates of human blood platelets (Homo sapiens, UniProt O76074); assay: Inhibition of the PDE isoenzymes: PDE5; assay type: biochemical; conditions: cGMP as substrate, read-out: PDE5 inhibitory concentration as -log IC50 (converted)
T3 construct: were investigated in homogenates of human blood platelets; from tissue; host or cells: human blood platelets (homogenate)
Description: as §1, §3, §2

[6] = tested on: human PMNL; assay: Inhibition of the formation of reactive oxygen species (FMLP-stimulated chemiluminescence) in human PMNL; assay type: cell-based; conditions: 0.05 h, FMLP 100 nM, luminol-potentiated chemiluminescence, AUC over 3 min, read-out: Inhibition of the FMLP-stimulated chemiluminiscence in human PMNL in vitro, inhibitory concentration as -log IC50 (converted)
From the text: In the investigation of PDE4 inhibition at the cellular level, the activation of inflammatory cells has particular importance. An example which may be mentioned is the FMLP (N-formylmethionylleucylphenylalanine)-induced superoxide production of neutrophilic granulocytes, which can be measured as luminol-potentiated chemiluminescence [McPhail L C, Strum S L, Leone P A and Sozzani S, The neutrophil respiratory burst mechanism. In “Immunology Serie” 1992, 57, 47-76; ed. Coffey R G (Marcel Decker, Inc., New York-Basel-Hong Kong)].
The formation of reactive oxygen species determined by means of luminol-potentiated chemiluminescence (5) and the isolation of the PMNL from human blood (6) was carried out essentially as described in (5) and (6): equal-size portions (0.5 ml) of the cell suspension (10^7 cells/ml) were preincubated at 37° C. for 5 min. In the absence or presence of the compounds to be investigated in a buffer solution containing 140 mM NaCl, 5 mM KCl, 10 mM HEPES, 1 mM CaCl2/MgCl2, 1 mg/ml of glucose, 0.05% (w/v) BSA (bovine serum albumin), 10 μM luminol and 4 μM microperoxidase. […]
as §2

T2 sequence (Q14432 whole entry): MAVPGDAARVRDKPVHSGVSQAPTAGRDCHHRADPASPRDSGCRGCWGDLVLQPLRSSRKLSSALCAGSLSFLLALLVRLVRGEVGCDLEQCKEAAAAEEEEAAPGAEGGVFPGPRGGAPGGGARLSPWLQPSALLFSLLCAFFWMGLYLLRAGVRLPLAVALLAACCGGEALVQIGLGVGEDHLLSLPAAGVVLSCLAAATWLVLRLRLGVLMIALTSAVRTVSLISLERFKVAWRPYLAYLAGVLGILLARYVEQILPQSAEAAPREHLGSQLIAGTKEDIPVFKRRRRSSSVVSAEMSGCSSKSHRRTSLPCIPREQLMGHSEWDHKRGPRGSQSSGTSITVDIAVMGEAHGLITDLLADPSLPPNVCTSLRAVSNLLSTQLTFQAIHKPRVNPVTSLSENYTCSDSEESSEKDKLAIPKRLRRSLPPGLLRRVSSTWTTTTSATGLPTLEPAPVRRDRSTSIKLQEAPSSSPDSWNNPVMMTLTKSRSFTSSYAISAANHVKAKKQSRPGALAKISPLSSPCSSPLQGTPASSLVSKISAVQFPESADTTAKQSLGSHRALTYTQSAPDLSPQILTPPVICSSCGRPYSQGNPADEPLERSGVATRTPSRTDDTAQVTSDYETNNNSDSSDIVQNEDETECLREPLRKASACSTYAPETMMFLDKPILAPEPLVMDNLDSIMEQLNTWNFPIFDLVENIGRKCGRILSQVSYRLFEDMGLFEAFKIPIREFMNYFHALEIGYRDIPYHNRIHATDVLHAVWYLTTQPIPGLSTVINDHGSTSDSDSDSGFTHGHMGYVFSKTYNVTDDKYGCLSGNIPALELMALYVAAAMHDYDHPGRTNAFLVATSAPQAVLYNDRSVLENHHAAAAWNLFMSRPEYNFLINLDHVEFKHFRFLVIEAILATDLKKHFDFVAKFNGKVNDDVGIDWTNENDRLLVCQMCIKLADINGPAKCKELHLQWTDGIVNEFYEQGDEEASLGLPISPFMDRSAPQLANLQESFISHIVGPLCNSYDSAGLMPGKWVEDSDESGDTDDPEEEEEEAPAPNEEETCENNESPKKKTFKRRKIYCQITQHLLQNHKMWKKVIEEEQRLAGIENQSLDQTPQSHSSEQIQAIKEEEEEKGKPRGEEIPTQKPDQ

| PDE1 inhibitory concentration as -log IC50 [1] | IC50 [2] | IC50 [3] | PDE4 inhibitory concentration as -log IC50 [4] | IC50 [5] | IC50 [6] | melting point | SMILES |
| --- | --- | --- | --- | --- | --- | --- | --- |
| <5 | 1100 nM | 79.4 nM | 8.60 | 91.2 nM | 40.7 nM | 267 to 268 °C | CCOc1cc2c(cc1OCC)[C@@H]1CN(C)CC[C@@H]1N=C2c1ccc(NS(=O)(=O)c2ccc(C)cc2)cc1 (relative stereo) [Compound 1, (−)-cis-8,9-Diethoxy-2-methyl-6-[4-(p-toluenesulfonamido)-phenyl]-1,2,3,4,4a,10b-hexahydro-benzo[c][1,6]naphthyridine] |
| 5.14 | 407 nM | 52.5 nM | 9.00 | 182 nM |  | 207 to 219 °C | CCOc1cc2c(cc1OC)C(c1ccc(NS(=O)(=O)c3ccc(C)cc3)cc1)=N[C@H]1CCN(C)C[C@@H]21 (relative stereo) [Compound 2, (−)-cis-9-Ethoxy-8-methoxy-2-methyl-6-[4-(p-toluenesulfonamido)-phenyl]-1,2,3,4,4a,10b-hexahydro-benzo[c][1,6]naphthyridine] |
| 4.75 | 813 nM | 95.5 nM | 7.20 | 2340 nM | 851 nM |  | COc1cc2c(cc1OC)[C@@H]1CN(C)CC[C@@H]1N=C2c1ccc(NS(=O)(=O)c2ccc(C)cc2)cc1 (relative stereo) [Tolafentrine, (−)-cis-8,9-Dimethoxy-2-methyl-6-[4-(p-toluenesulfonamido)-phenyl]-1,2,3,4,4a,10b-hexahydrobenzo[c][1,6]naphthyridine, reference compound] |
